pIC50: −log10 of the molar value.
What was measured:
[1] = target: T1, angiotensin-converting enzyme (Oryctolagus cuniculus, UniProt P12822); experiment: in vitro inhibition of the angiotensin-converting enzyme (hippuryl-histidyl-leucine substrate); assay type: biochemical; conditions: pH 8.3, 30 minutes at 37° C., read-out: IC50, inhibiting ACE in vitro assay
T1 sequence (P12822 34-1310): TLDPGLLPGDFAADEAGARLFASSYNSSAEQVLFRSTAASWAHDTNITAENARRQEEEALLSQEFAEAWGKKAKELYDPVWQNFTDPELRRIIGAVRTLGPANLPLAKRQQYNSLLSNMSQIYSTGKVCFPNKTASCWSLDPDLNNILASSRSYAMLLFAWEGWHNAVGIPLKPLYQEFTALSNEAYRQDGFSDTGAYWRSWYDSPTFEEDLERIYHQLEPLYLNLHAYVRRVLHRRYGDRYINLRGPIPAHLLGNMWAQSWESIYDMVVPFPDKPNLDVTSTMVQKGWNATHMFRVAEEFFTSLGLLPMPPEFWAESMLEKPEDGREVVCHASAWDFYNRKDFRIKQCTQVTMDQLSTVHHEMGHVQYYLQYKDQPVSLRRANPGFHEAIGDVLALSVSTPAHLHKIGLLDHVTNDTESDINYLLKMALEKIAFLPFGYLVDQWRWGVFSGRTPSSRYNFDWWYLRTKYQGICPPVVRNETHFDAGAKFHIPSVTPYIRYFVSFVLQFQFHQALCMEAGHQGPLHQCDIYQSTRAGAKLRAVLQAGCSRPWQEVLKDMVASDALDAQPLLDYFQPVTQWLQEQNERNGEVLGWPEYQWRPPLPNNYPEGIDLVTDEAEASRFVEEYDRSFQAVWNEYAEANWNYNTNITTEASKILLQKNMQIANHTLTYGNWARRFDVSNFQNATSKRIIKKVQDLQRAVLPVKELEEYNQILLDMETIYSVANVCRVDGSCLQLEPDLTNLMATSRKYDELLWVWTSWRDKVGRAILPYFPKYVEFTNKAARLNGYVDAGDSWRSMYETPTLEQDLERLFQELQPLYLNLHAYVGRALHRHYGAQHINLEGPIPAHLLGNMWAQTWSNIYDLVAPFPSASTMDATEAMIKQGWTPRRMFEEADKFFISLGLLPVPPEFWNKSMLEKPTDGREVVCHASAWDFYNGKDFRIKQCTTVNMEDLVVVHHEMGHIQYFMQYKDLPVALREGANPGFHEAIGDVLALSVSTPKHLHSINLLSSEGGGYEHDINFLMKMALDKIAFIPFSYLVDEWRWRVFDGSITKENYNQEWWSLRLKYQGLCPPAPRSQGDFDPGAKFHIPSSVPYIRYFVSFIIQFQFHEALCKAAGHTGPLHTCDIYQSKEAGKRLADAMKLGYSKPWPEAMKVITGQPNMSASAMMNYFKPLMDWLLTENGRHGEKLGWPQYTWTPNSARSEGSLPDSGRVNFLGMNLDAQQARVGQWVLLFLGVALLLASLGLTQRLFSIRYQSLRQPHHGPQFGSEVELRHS
Method: (§1) In vitro testing is most appropriate for the free carboxylic acids of the invention. The test compound is dissolved in dimethyl sulfoxide, ethanol, or 0.25M sodium bicarbonate solution, and the solution is diluted with buffer to the desired concentration.
The buffer for the ACE assay is 300 mM NaCl, […] KH2 PO4 (pH 8.3). The reaction is initiated by the addition of 100 μl of hippuryl-histidyl-leucine (2 mg/ml) to tubes containing enzyme and drug in a volume of 150 μl and tubes are incubated for 30 minutes at 37° C. The reaction is terminated by the addition of 0.75 ml 0.6N NaOH. 100 μl of freshly prepared O-pthaldehyde solution (2 mg/ml in methanol) is added to the tubes, the contents are mixed and allowed to stand at room temperature. After 10 minutes, 100 μl of 6N HCl is added. The tubes are centrifuged and the supernatant optical density is read at 360 nm. The results are plotted against drug concentration to determine the IC50, i.e., the drug concentration which gives half the activity of the control sample containing no drug.

[2] = target: T2, neutral endopeptidase (NEP, EC 3.4.24.11) (Rattus norvegicus, UniProt P07861); experiment: in vitro inhibition of neutral endopeptidase (GAAP in vitro assay); assay type: biochemical; conditions: rat kidney cortex membranes, 500 μM glutaryl-Ala-Ala-Phe-2-naphthylamide, pH 7.4, 10 minutes at 25° C.
T2 construct: rat kidney cortex membranes; from tissue; host or cells: rat kidney cortex membranes
T2 sequence (P07861 1-750): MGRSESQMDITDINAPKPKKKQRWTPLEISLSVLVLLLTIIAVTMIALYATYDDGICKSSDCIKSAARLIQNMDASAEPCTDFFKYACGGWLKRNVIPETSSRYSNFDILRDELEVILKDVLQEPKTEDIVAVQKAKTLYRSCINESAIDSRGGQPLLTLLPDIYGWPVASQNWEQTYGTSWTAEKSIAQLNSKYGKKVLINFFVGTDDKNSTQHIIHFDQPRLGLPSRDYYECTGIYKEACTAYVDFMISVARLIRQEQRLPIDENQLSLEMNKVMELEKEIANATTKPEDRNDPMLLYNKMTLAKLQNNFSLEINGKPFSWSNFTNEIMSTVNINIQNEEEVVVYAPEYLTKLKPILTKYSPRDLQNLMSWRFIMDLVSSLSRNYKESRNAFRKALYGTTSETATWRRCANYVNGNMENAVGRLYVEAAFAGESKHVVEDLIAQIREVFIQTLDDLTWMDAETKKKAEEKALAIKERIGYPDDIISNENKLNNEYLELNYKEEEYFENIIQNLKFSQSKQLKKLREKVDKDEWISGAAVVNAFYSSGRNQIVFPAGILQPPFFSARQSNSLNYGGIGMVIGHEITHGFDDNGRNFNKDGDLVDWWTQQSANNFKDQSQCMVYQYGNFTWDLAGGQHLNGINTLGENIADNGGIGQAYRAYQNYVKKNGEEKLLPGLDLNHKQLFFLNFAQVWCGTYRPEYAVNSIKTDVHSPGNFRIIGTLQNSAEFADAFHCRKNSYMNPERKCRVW
Method: as §1
The in vitro inhibition of neutral endopeptidase (NEP, EC 3.4.24.11) can be determined as follows:
Neutral endopeptidase 3.4.24.11 activity is determined by the hydrolysis of the substrate glutaryl-Ala-Ala-Phe-2-naphthylamide (GAAP) using a modified procedure of Orlowski and Wilk (1981). The incubation mixture (total volume 125 μl) contains 4.2 μg of protein (rat kidney cortex membranes prepared by method of Maeda et at, 1983), 50 mM tris buffer, pH 7.4 at 25° C., 500 μM substrate (final concentration), and leucine aminopeptidase M (2.5 μg). The mixture is incubated for 10 minutes at 25° C. and 100 μl of fast garnet (250 μg fast garnet/ml of 10% Tween 20 in 1M sodium acetate, pH 4.2) is added. Enzyme activity is measured spectrophotometrically at 540 nm. One unit of NEP 24.11 activity is defined as 1 nmol of 2-naphthylamine released per minute at 25° C. at pH 7.4. IC50 values are determined, i.e. the concentration of test compound required for 50% inhibition of the release of 2-naphthylamine.

pIC50 [1]	pIC50 [2]	SMILES
~7.52	~7.30	O=C(N[C@H]1CCc2cccc3c2N(C1=O)[C@H](C(=O)O)C3)[C@@H](S)Cc1ccccc1 [2(a), 5-[((S)-2-mercapto-3-phenylpropionyl)-(S)-amino]-1,2,4,5,6,7-hexahydroazepino[3,2,1-hi]indole-4-one-2-(S)-carboxylic acid]
~7.52	–	CC(C)[C@H](S)C(=O)N[C@H]1CCc2cccc3c2N(C1=O)[C@H](C(=O)O)C3 [5(a), 5-[((S)-2-mercapto-3-methylbutanoyl)-(S)-amino]-1,2,4,5,6,7-hexahydro-azepino[3,2,1-hi]indole-4-one-2-(S)-carboxylic acid]
~7.11	~7.82	O=C(N[C@H]1CCc2cccc3c2N(C1=O)[C@H](C(=O)O)C3)[C@@H](CS)Cc1ccc(-c2ccccc2)cc1 [6(b), 5-[((S)-2-biphenyl-4-ylmethyl-3-mercapto-propionyl)-(S)-amino]-1,2,4,5,6,7-hexahydroazepino[3,2,1-hi]indole-4-one-2-(S)-carboxylic acid]
